Reference: PMC10112521, “High-throughput AR dimerization assay identifies androgen disrupting chemicals and metabolites” (Frontiers in Toxicology, 2023)
“And” between values parts separate entries of the source, which are not always exact repeats. Equal values may be shown once. Read-outs that look alike come from different tables or passages of the source.

How the values were obtained:
[1] = system: human AR (LBD and AF2 domains) and the RID of human SRC2; parameters: method as in U.S. EPA, 2002b; settings: activity call, agonist mode, 2 h; invitroDBv3.4 ref U.S. EPA, 2002b; cited from earlier work
[2] = target: T1, human AR (Homo sapiens, UniProt P10275); test: AR2 assay, antagonist mode: disruption of R1881 (10 nM)-induced AR homodimerization in HepG2-AR2 cells; type: cell-based
T1 sequence (P10275 1-920) 1: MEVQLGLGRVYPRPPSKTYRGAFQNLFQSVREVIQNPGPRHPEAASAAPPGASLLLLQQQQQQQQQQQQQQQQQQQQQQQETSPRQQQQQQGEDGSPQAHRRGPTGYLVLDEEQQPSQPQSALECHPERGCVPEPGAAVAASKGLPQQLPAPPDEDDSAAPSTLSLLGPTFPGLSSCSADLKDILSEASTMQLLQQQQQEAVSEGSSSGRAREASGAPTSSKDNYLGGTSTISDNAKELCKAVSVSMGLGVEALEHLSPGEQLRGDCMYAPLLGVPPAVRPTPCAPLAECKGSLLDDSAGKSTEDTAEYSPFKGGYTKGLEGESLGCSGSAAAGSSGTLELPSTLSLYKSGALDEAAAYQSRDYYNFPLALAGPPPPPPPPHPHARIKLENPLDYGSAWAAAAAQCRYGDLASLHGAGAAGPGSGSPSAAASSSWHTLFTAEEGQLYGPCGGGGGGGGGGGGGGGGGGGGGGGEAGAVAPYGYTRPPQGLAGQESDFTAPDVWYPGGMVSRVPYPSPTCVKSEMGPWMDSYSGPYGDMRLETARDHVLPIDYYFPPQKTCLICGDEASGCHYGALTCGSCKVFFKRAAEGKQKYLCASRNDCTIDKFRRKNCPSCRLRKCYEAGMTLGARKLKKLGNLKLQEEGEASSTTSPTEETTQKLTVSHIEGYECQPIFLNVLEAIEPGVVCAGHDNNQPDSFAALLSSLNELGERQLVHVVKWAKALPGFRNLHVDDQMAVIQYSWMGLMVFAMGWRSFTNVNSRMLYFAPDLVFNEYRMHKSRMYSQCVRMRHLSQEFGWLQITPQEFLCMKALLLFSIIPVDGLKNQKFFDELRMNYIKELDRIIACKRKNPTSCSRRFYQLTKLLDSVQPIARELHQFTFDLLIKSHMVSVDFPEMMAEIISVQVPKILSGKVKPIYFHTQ
T1 sequence (P10275 1-920) 2: T1 sequence (P10275 1-920) 1

[3] = system: AR2 cells (HepG2-AR2); test: Alamar Blue (resazurin) post hoc cell viability / cytotoxicity assay in AR2 cells; settings: spid Viability, sheet antagonist_fits; for hill_tp (Hill model top): 0 where win_model is Constant
Description: (§1) For antagonist mode and cytotoxicity data, well-level normalized response (resp) was calculated as: resp=100 * RLU−bval/pval−bval where pval is the median RLU value of the MEC positive control wells (minimum four wells).

[4] = target: T1, human AR; test: cell-based; parameters: species or system AR2 cells (HepG2-AR2); NanoLuc complementation AR homodimerization, antagonist mode, loss of agonist-induced luminescence, AC50 by Hill fit; settings: hill_ga, antagonist mode, 10 nM agonist stimulus, 18 h, no CYP expressed
[5] = target: T1, human AR; test: AR2 assay, agonist mode: ligand-dependent AR homodimerization (NanoBiT luciferase complementation) in stable HepG2-AR2 cells; type: cell-based; parameters: Emax: dose or concentration left out as unconfirmed;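 on hill tp: Log2 fold change of luminescence over DMSO vehicle wells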;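 on max med: Log2 fold change of luminescence over DMSO vehicle wells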
[6] = system: AR; parameters: method as in Kleinstreuer et al., 2017; settings: 2017, cited from earlier work; for Agonist reference: AR agonist reference class ref Kleinstreuer et al.; for Antagonist reference: AR antagonist reference class ref Kleinstreuer et al.
[7] = system: human AR (LBD and AF2 domains) and the RID of human SRC2; parameters: method as in U.S. EPA, 2002b; settings: cited from earlier work
[8] = system: full-length human AR and the receptor interacting domain (RID) of SRC1; parameters: method as in U.S. EPA, 2002b; settings: cited from earlier work
[9] = system: AR2 cells (HepG2-AR2)
Description: as §1

[10] = target: T1, human AR; test: cell-based; parameters: species or system AR2 cells (HepG2-AR2); NanoLuc complementation AR homodimerization, agonist mode, luminescence gain, AC50 by Hill fit; settings: hill_ga
[11] = target: T1, human AR; test: AR2 assay, antagonist mode, retrofitted with human CYP metabolism by mRNA transfection (biogroups no RNA, Bgal, ten CYPs)
[12] = target: T1, human AR
[13] = target: T1, human AR; test: cell-based
[14] = spid AR_antagonist, sheet antagonist_fits
[15] = spid AR_antagonist, sheet antagonist_fits, 0 where win_model is Constant
[16] = sheet agonist_fits, Hill model top (efficacy), 0 given where win_model is Constant
[17] = sheet agonist_fits, maximum median response
[18] = sheet agonist_fits, winning concentration-response model (Constant, Hill, Gain-Loss)

Compound	UPitt agonist [1]	win_model (winning concentration-response model) [2, 14]	hill_gw (Hill model slope) [2, 15]	max_med (maximum median response) [3]	hill_tp (Hill model top) [3]	AC50 ([4]; spid=Bgal) [nM]	AC50 ([4]; spid=No_RNA) [nM]	hill_tp [5, 16]	max_med [5, 17]	win_model [5, 18]	Agonist reference [6]	Antagonist reference [6]	Agonist reference ([6]; Supplementary Table S1)	hill_tp (Hill model top) [2]	max_med (maximum median response) [2]	hill_gw [5]	hill_tp [5]	max_med [5]	win_model [5]	further results
CC1(C)[C@H](C(=O)O[C@H](C#N)c2cccc(Oc3ccccc3)c2)[C@@H]1C=C(Br)Br [Deltamethrin]	0	Hill	2.614	34.81	34.1073	12300	12800	0	0.0322	Constant	Inactive	Inactive	Inactive							AR2 antagonist ([2]; activity call, antagonist mode, 18 h): 0; max_med (maximum median response) [2, 14]: 65.39; hill_tp (Hill model top) [2, 15]: 65.8008; AR2 agonist ([5]; activity call, agonist mode, 18 h): 0; Antagonist reference ([6]; Supplementary Table S1): Inactive; UPitt antagonist ([7]; activity call, antagonist mode, 2 h, invitroDBv3.4 ref U.S. EPA, 2002b): 0; OT 8 hr ([8]; activity call, 8 h, single protocol detects agonists and antagonists, invitroDBv3.4 ref U.S. EPA, 2002b): 0; OT 16 hr ([8]; activity call, 16 h, single protocol detects agonists and antagonists, invitroDBv3.4 ref U.S. EPA, 2002b): 0
C[C@]12CC[C@H]3C(=CCc4cc(O)ccc43)[C@@H]1CCC2=O [Equilin]		Hill	1.131			487	861	3.175	3.181	Hill				92.4898	92.3262					hill_tp (Hill model top) [9]: 7.023; max_med (maximum median response) ([9]; spid Viability, sheet antagonist_fits): 12.8285; AC50 ([10]; spid=Bgal, agonist mode, 18 h, no CYP expressed): 2140 nM; AC50 ([10]; spid=No_RNA, agonist mode, 18 h, no CYP expressed): 2290 nM; effect of CYP metabolism on AR antagonist activity ([11]; CYP2C19 biogroup): reduced the potency; hill_gw ([5]; sheet agonist_fits, Hill model gain slope (Hill coefficient), 0 given where win_model is Constant): 1.401
C[C@]1(O)CC[C@H]2[C@@H]3CCC4=CC(=O)CCC4=C3C=C[C@@]21C [R1881, (17b)-17-hydroxy-17-methyl-estra-4,9,11-trien-3-one]																1.162	6.231	6.236	Hill	effect of CYP metabolism on the AR2 assay controls [12]: unimpacted by CYP metabolism; Emax ([5]; read-out: maximal response): > 95%
CCC(=O)O[C@H]1CC[C@H]2[C@@H]3CCC4=CC(=O)CC[C@]4(C)[C@H]3CC[C@]12C [Testosterone propionate]	0			32.5936	43.3025						Strong	Inactive	Strong	100.853	102.627	0.9765	2.087	2.0998	Gain-Loss	AR2 antagonist [2]: 1; hill_gw (Hill model slope) [2]: 1.115; win_model (winning concentration-response model) [2]: Hill; AC50 [10]: 234 nM; change of AC50 value ([11]; median across all biogroups versus CYP2C8, CYP2C9, CYP2C19, CYP3A4): more than 2 fold; AC50 [13]: 169 nM and 529 nM and 333 nM and 440 nM and 380 nM; AR2 agonist [5]: 1; UPitt antagonist [7]: 0; OT 8 hr [8]: 1; OT 16 hr [8]: 1
